Like-named read-outs stand apart in the source and are kept apart here.
What was measured:
P-gp [1] = details: cited from earlier work; for Mean AUC∞ ratio of victim drug / Mean Cmax ratio of victim drug: Observed
CYP3A = details: cited from earlier work
P-gp [2] = target: T1, P-gp (Homo sapiens, UniProt P08183); details: in vitro and clinical studies; cited from earlier work
[3] = single-dose elagolix 150 mg with ketoconazole 400 mg, Observed; cited from earlier work
P-gp [4] = target: T1, P-gp; assay: P-gp inhibition; type: in vitro ADME; details: following administration of 150 or 200 mg of elagolix
[5] = cited from earlier work
[6] = Clinical multiple-dose pharmacokinetics of elagolix in healthy subjects; type: in vivo, human; details: for AUCτ / CL/F / Cmax: healthy subjects
[7] = Child–Pugh A patients compared with healthy volunteers; cited from earlier work
[8] = digoxin day 1 with elagolix 200 mg BID
[9] = digoxin day 10 with elagolix 200 mg BID
[10] = midazolam with elagolix 150 mg QD, Observed
[11] = 150 mg QD (N = 6), Day 21, Observed
[12] = 200 mg BID (N = 7), Day 21, Observed

T1 sequence (P08183 whole entry): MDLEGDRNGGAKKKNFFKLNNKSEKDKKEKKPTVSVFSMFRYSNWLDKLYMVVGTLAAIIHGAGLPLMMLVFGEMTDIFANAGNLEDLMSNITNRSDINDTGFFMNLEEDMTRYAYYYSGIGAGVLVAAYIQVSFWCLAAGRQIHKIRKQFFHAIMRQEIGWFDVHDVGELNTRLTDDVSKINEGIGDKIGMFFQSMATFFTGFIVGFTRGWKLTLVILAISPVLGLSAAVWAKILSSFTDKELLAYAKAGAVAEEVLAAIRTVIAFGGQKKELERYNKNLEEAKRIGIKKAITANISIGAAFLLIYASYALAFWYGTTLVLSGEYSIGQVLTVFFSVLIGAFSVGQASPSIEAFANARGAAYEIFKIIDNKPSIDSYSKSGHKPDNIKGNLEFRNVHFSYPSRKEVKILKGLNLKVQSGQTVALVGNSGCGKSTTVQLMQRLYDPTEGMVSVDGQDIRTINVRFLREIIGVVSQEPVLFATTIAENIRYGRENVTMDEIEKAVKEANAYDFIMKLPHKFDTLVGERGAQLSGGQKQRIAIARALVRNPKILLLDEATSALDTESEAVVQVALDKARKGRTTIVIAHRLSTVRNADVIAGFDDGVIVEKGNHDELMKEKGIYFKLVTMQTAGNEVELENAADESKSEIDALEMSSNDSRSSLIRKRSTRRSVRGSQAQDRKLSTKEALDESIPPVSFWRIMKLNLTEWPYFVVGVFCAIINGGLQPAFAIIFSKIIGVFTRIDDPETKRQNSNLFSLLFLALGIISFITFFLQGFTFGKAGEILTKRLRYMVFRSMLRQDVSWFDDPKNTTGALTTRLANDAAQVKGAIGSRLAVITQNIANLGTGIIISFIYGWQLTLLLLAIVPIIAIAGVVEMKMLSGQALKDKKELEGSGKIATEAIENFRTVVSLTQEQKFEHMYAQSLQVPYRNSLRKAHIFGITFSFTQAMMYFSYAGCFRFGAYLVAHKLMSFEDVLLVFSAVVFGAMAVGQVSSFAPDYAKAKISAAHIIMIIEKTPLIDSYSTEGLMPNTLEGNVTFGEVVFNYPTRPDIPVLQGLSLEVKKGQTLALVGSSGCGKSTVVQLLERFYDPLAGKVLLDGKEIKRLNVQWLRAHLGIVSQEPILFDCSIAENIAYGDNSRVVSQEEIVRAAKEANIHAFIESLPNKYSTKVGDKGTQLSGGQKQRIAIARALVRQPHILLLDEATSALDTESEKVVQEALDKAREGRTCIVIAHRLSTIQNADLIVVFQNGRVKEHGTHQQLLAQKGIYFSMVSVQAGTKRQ

Compound: C[C@H]1O[C@@H](O[C@H]2[C@@H](O)C[C@H](O[C@H]3[C@@H](O)C[C@H](O[C@H]4CC[C@@]5(C)[C@H](CC[C@@H]6[C@@H]5C[C@@H](O)[C@]5(C)[C@@H](C7=CC(=O)OC7)CC[C@]65O)C4)O[C@@H]3C)O[C@@H]2C)C[C@H](O)[C@@H]1O [Digoxin, digoxin]
- Mean AUC∞ ratio of victim drug (P-gp [1]; [8]): 1.32
- Mean Cmax ratio of victim drug (P-gp [1]; [8]): 1.73
- Mean AUC∞ ratio of victim drug (P-gp [1]; [9]): 1.26
- Mean Cmax ratio of victim drug (P-gp [1]; [9]): 1.71
- Increase in digoxin AUC (P-gp [1]; elagolix 200 mg BID, observed): ~30%
- Increase in digoxin Cmax (P-gp [1]; elagolix 200 mg BID, observed): approximately 70%

Compound: Cc1ncc2n1-c1ccc(Cl)cc1C(c1ccccc1F)=NC2 [Midazolam, midazolam]
- Decrease in midazolam AUC (CYP3A; elagolix 150 mg QD, observed): 35%
- Mean AUC∞ ratio of victim drug (CYP3A; [10]): 0.65
- Mean Cmax ratio of victim drug (CYP3A; [10]): 0.81

Compound: CO[C@H]1/C=C/O[C@@]2(C)Oc3c(C)c(O)c4c(O)c(c(/C=N/N5CCN(C)CC5)c(O)c4c3C2=O)NC(=O)/C(C)=C\C=C\[C@H](C)[C@H](O)[C@@H](C)[C@@H](O)[C@@H](C)[C@H](OC(C)=O)[C@@H]1C [Rifampin, rifampin]
- Induction of P-gp expression (P-gp [2]): four folds

Compound: COc1cccc(-c2c(C)n(Cc3c(F)cccc3C(F)(F)F)c(=O)n(C[C@H](NCCCC(=O)O)c3ccccc3)c2=O)c1F [elagolix]
- Mean Cmax ratio of elagolix [3]: 1.77
- Ki for P-gp below predicted intestinal elagolix concentration in the gastrointestinal lumen (P-gp [4]): approximately 500 fold
- Apparent terminal elimination half-life (t½) ([5]; clinical doses of 150 mg QD and 200 mg BID): 4 to 6 h
- Time of maximum plasma concentration (Cmax) after dosing ([5]; oral administration): 1 h
- AUCτ ([6]; 150 mg QD (N = 6), Day 1, Observed): 1331 ng●h/mL
- AUCτ [6, 11]: 1292 ng●h/mL
- CL/F [6, 11]: 123 L/h
- AUCτ ([6]; 200 mg BID (N = 7), Day 1, Observed): 1813 ng●h/mL
- AUCτ [6, 12]: 1725 ng●h/mL
- CL/F [6, 12]: 144 L/h
- Tmax ([6]; human, plasma, oral, 150 mg): 1.3 h
- half-life ([6]; human, plasma, oral, 150 mg): 6.42 h
- Cmax ([6]; human, plasma, oral, 150 mg, 150 mg QD (N = 6), Day 1, Observed): 507 ng/mL
- half-life ([6]; human, plasma, oral, 200 mg): 4.29 h
- Cmax ([6]; human, plasma, oral, 200 mg, 200 mg BID (N = 7), Day 1, Observed): 712 ng/mL
- Impact of hepatic impairment on elagolix exposures [7]: no impact

— publication PMC7217817 (Clinical Pharmacokinetics, 2019)
